From patent US4999366A, “Isoxazolidine-3,5-diones, pharmaceutical compositions and method of treatment” (The North Carolina Central Univ., priority 1990, dated 1991)
Like-named read-outs stand apart in the source and are kept apart here.

Tests used:
serum triglyceride [1] = assay: Serum triglyceride in normal CF1 mice (Example 10); type: in vivo, CF1 male mice; conditions: Mus musculus, 384 h, 20 mg/kg/day ip, Day 16, ± standard deviation, read-out: Serum Triglyceride, Day 16 (percent control)
Protocol: (§1) The ten compounds listed in Table II below were tested for their hypolipidemic activity in CF1 mice.
(§2) Compounds A-J as defined above, were suspended in an aqueous 1percent carboxymethylcellulose (CMC) solution and homogenized. Each of the so prepared compounds were administered to a group of six CF1 male mice, each weighing approximately 25 grams, intraperitioneally for 16 days. Each of these compounds were provided in a dosage of 20 mg/kg/day ip. On Days 9 and 16 blood was obtained by tail vein bleeding. The blood serum so obtained was separated by centrifugation for three minutes. Serum cholesterol levels were determined by a modification of the Liebermann-Burchard reaction (Ness, Clin. Chim. Acta., Vol. 10, 229[1964]). Serum triglyceride levels were determined on Day 16 by use of the Fisher, Hycel Triglyceride Test Kit.
(§3) In addition to the above-described treated mice, an untreated control group of six mice were similarly tested on Days 9 and 16 to determine their serum cholesterol and trigylceride blood levels. Based on the results obtained for the untreated control group, the percent control, based on serum cholesterol and serum triglyceride levels of the treated mice compared to the untreated mice, was obtained. Table III reports this percent control, including standard deviation, indicating the level of confidence of these numbers.

serum cholesterol [2] = assay: Serum cholesterol in normal CF1 mice (Example 10); type: in vivo, CF1 male mice; conditions: Mus musculus, 20 mg/kg/day ip
Protocol: as §1, §2, §3

plasma lipid level = conditions: rats; cited from earlier work
serum cholesterol [3] = assay: Serum cholesterol in normal rats (Example 12); type: in vivo, Sprague-Dawley male rats; conditions: 20 mg/kg/day orally
Protocol: (§4) A solution of Compound D, 2-(3,4,5-trimethoxybenzoyl)-4,4-diethylisoxazolidine-3,5-dione, was suspended in an aqueous solution of 1% CMC, homogenized and administered orally to six Sprague-Dawley male rats, which each weighed approximately 350 grams. Similarly, six Sprague-Dawley male rats of approximately the same weight were administered similar volumes of the same aqueous 1% CMC solution without the active agent, Compound D, also orally. In each case, administration was by intubation needle at 20 mg/kg/day for 14 days. In addition, as a control, a similar group of six male Sprague-Dawley rats were untreated.
(§5) On Days 7 and 14, blood was obtained from each of the rats of the three groups by tail vein bleeding. The blood obtained was separated by centrifugation for three minutes. Serum cholesterol and triglyceride levels were determined in accordance with the procedure of Example 10.

serum cholesterol [4] = assay: Serum cholesterol in hyperlipidemic mice on atherogenic diet (Example 11); type: in vivo, CF1 male mice; conditions: hyperlipidemic CF1 mice, 20 mg/kg/day ip, Day 14, from 375 mg %
Protocol: (§6) A group of six CF^1 male mice (about 25 g) was placed on a commercial diet (U.S. Biochemical Corporation BAsal Atherogenic Test Diet) which produced a "hyperlipidemic" state. That is, the average serum cholesterol level in the group of treated mice was raised from 122 to 375 mg % and triglyceride levels were raised from 137 to 367 mg/dl.
(§7) Upon reaching these hyperlipidemic levels, the mice were administered Compound D in a concentration of 20 mg/kg/day intraperitoneally for 14 days while continuing the diet. On Day 14, serum cholesterol and serum triglyceride levels were measured in accordance with the procedure of Example 10.

serum triglyceride [5] = assay: Serum triglyceride in hyperlipidemic mice on atherogenic diet (Example 11); type: in vivo, CF1 male mice; conditions: hyperlipidemic CF1 mice, 20 mg/kg/day ip, Day 14, from 367 mg/dl
Protocol: as §6, §7

serum triglyceride [6] = assay: Serum triglyceride in normal rats (Example 12); type: in vivo, Sprague-Dawley male rats; conditions: 20 mg/kg/day orally
Protocol: as §4, §5

[7] = 216 h, Day 9, ± standard deviation, read-out: Serum Cholesterol, Day 9 (percent control)
[8] = 384 h, Day 16, ± standard deviation, read-out: Serum Cholesterol, Day 16 (percent control)

Structure (SMILES)	response vs control in vivo at 20 mg/kg/day (serum triglyceride [1])	response vs control in vivo at 20 mg/kg/day (serum cholesterol [2]; [7])	response vs control in vivo at 20 mg/kg/day (serum cholesterol [2]; [8])	further results
CCC1(CC)C(=O)ON(C(=O)c2ccc(OC)c(OC)c2)C1=O [G, 2-(3,4-dimethoxybenzoyl)-4,4-diethylisoxazolidine-3,5-dione]	84%	81%	77%	
O=C(O)c1cc(=O)[nH]c(=O)[nH]1 [orotic acid]				plasma lipid level (plasma lipid level): decrease the plasma lipid level in rats
C=C(C)N1OC(=O)C(CC)(CC)C1=O [A]	71 ± 6%	70 ± 7%	75 ± 4%	
CCC1(CC)C(=O)ON(C(=O)c2ccc(C)cc2)C1=O [I, 2-(4-methylbenzoyl)-4,4-diethylisoxazolidine-3,5-dione]	86%	73%	46%	
CCC1(CC)C(=O)ON(C(C)(C)N2OC(=O)C(CC)(CC)C2=O)C1=O [F, 2,2-bis-[2-(4,4-diethylisoxazolidine-3,5-dione)]propane]	68 ± 8%	95 ± 4%	57 ± 6%	
CCC1(CC)C(=O)ON(C(=O)c2ccc(OC)cc2)C1=O [H, 2-(4-methoxybenzoyl)-4,4-diethylisoxazolidine-3,5-dione]	63%	89%	62%	
CCC1(CC)C(=O)ON(C(=O)c2ccc(Cl)cc2)C1=O [J, 2-(4-chlorobenzoyl)-4,4-diethylisoxazolidine-3,5-dione]	76%	64%	45%	
C=C(c1ccccc1)N1OC(=O)C(CC)(CC)C1=O [B, 2-(1-phenylethenyl)-4,4-diethylisoxazolidine-3,5-dione]	71 ± 4%	71 ± 5%	63 ± 6%	
CCC1(CC)C(=O)ON(C(=O)c2ccccc2)C1=O [E, 2-benzoyl-4,4-diethylisoxazolidine-3,5-dione]	63 ± 7%	77 ± 5%	53 ± 6%	
CCC1(CC)C(=O)ON(C(=O)c2cc(OC)c(OC)c(OC)c2)C1=O [Compound D, 2-(3,4,5-trimethoxybenzoyl)-4,4-diethylisoxazolidine-3,5-dione]	66 ± 6%	82 ± 6%	51 ± 5%	serum cholesterol level compared to control rats, Day 7 (serum cholesterol [3]; Day 7): 77%; serum cholesterol level compared to control rats, Day 14 (serum cholesterol [3]; Day 14): 61%; serum cholesterol level after treatment (serum cholesterol [4]): 150 mg %; serum cholesterol remaining, percent of pre-treatment level (serum cholesterol [4]): 40%; serum triglyceride level after treatment (serum triglyceride [5]): 187 mg/dL; serum triglyceride level remaining, percent of pre-treatment level (serum triglyceride [5]): 51%; average serum triglyceride level compared to control, Day 7 (serum triglyceride [6]; Day 7): 64%; serum triglyceride level compared to control, Day 14 (serum triglyceride [6]; Day 14): 43%
CCC1(CC)C(=O)ON(C2(N3OC(=O)C(CC)(CC)C3=O)CCCCC2)C1=O [C, 1,1-bis-[2-(4,4-diethylisoxazolidine-3,5-dione)]cyclohexane]	77 ± 9%	86 ± 7%	73 ± 7%	
